Where “and” joins values, the source holds several entries; their conditions need not be identical. Equal entries are not always repeated.
Assays:
[1] = system: bone remodeling (fractured tibia); assay: Bone fracture model, PET/SPECT of bone remodeling; format: in vivo, mice; details: PET or SPECT
Method: Osseous tumors were established in intact male mice via injection of LNCaP-AR in the tibia of the left hindlimb as follows. Prior to surgery, […] male SCID mice were anesthetized with ketamine, and an incision was be made in the left hind limb. The tibia was punctured using a bone drill, and 1×10^5 cells (22Rv1 or LNCaP-AR) injected into the marrow. The puncture was closed with bone wax, the incision sutured, and animals received a palliative dose of carprofen (5 mg/kg) once daily for three days post surgery. Tumor development was followed with bioluminescence imaging, and confirmed with MRI. The bone fracture model was prepared similar to the osseous tumor model, excluding injection of cells and application of bone wax.
In FIG. 14c, intact male mice received a fracture in the tibia, and ten days post surgery, bone remodeling was evaluated with ^18F—NaF. A clear region of contrast was identified in the fractured tibia by PET.

LNCaP-AR xenografts [2] = assay: Ex vivo biodistribution of 89Zr-5A10, castrate male mice bearing LNCaP-AR xenografts treated with vehicle or MDV3100 (Table 13); format: in vivo
Method: All animal experiments were conducted in compliance with Institutional Animal Care and Use Committee (IACUC) guidelines and the Guide for the Care and Use of Laboratory Animals. Male CB-17 SCID mice (6-8 weeks old) were obtained from Taconic Farms Inc. (Hudson, NY), LNCaP-AR, 22Rv1, and PC3 tumors were inoculated in the right flank by sub-cutaneous (s.c.) injection of 1.0×10^6 cells in a 200 μL cell suspension of a 1:1 v/v mixture of media with reconstituted basement membrane (BD Matrigel™, Collaborative Biomedical Products Inc., Bedford, MA). Palpable tumors (50-250 mm^3) developed after a period of 3-7 weeks. Surgical castration and pellet implantation were performed according to known protocols under anesthesia with isoflurane. […]
Tissues were harvested at multiple time points post-injection (p.i.) to determine the kinetics of radiotracer biodistribution (FIG. 3a). […] Animals (n=4-5, per group) were euthanized by CO2 (g) asphyxiation at 1, 4, 12, 24, 48, 72, 96, and 120 h post-injection and 16 tissues (including the tumor) were removed, rinsed in water, dried in air for 5 min., weighed and counted on a gamma-counter for accumulation of ^89Zr-radioactivity. […] Count data were background- and decay-corrected and the tissue uptake measured in units of percentage injected dose per gram (% ID/g) for each sample was calculated by normalization to the total amount of activity injected. […]

LNCaP-AR xenografts [3] = assay: 89Zr-5A10 PET, region-of-interest analysis (SUVmean) of s.c. LNCaP-AR tumors (Table 16); format: in vivo, mice
fPSA and tPSA [4] = assay: Tumor PSA ELISA, castrate male mice bearing LNCaP-AR tumors treated with vehicle or MDV3100 (Table 14); format: in vivo, human; details: for f/t PSA Ratio / fPSA / fPSA/tProtein: tumor, individual mice, listed as MDV
Method: (§1) Mice were injected with ^89Zr-5A10, and at the indicated time point post injection, were sacrificed for PSA analysis. Tumor tissues were surgically excised. fPSA and total PSA (“tPSA”) were determined with PSA-directed ELISA, and the values were normalized to total protein concentration. fPSA concentrations are reported as average ng/ml(a), total PSA (“tPSA”) concentrations are reported as ng/mL (b), and total protein concentrations are reported as ng/mg (c). ELISAs were conducted as follows for PSA detection in serum and tumor tissues. fPSA and tPSA were measured with a dual-label immunofluorometric assay (DELFIA Prostatus™ PSA Free/Total PSA; Perkin-Elmer Life Sciences) according to manufacturer's recommendations. This assay measured fPSA and complexed PSA (cPSA) in an equimolar fashion^8, and the cross-reactivity of PSA-ACT for fPSA was <0.2%^9. […] For detection, the 1235 automatic immunoassay system from Perkin-Elmer Life Sciences was used. cPSA concentrations were calculated by subtracting fPSA from tPSA.
As expected, each dose of MDV3100 inhibited AR signaling and fPSA synthesis (Table 14). Table 14 provides data regarding tumor analysis of PSA expression levels via ELISA in castrate male mice bearing LNCaP-AR tumors treated with antiandrogens. Castrate male mice bearing LNCaP-AR xenografts received a daily oral gavage of vehicle (VEH #), 10 mg/kg (MDV10 #), 40 mg/kg (MDV40 #), or 80 mg/kg (MDV80 #). Six days post manipulation, mice were injected with ^89Zr-5A10. Twenty four hours post injection, mice were sacrificed for PSA analysis. Tumor tissues were surgically excised. fPSA and tPSA were determined with PSA-directed ELISA (as above), and in the case of intratumoral PSA, the values were normalized to total protein concentration. ^afPSA concentrations are reported as ng/ml, ^btotal PSA concentrations are reported as ng/mL, ^ctotal protein concentrations are reported as ng/mg. Abbreviations: fPSA, fPSA; tPSA, total PSA.

fPSA and tPSA [5] = assay: Intratumoral PSA ELISA, castrate male mice bearing LNCaP-AR xenografts, no treatment or testosterone pellet (Table 10); format: in vivo, human
Method: as §1
Table 10 provides intratumoral PSA concentrations in castrate male mice bearing LNCaP-AR xenografts, receiving either no manipulation, or a subcutaneous testosterone pellet. […] Twenty four hours post injection, mice were sacrificed for PSA analysis. Tumor tissues were surgically excised. fPSA and tPSA were determined with PSA-directed ELISA (as above), and in the case of intratumoral PSA, the values were normalized to total protein concentration. ^afPSA concentrations are reported as ng/ml, ^btotal PSA concentrations are reported as ng/mL, ^ctotal protein concentrations are reported as ng/mg. Abbreviations: fPSA, fPSA; tPSA, total PSA.

fPSA and tPSA [6] = assay: Tumor PSA ELISA, castrate male mice bearing 22Rv1 tumors, no treatment or testosterone pellet (Table 12); format: in vivo, human; details: 22Rv1 tumor, individual mice with s.c. testosterone pellet, 7 d
Method: as §1
Twenty four hours post-injection, mice were sacrificed for PSA analysis. […]

[7] = 10 mg/kg daily oral gavage, 10 mg/kg
[8] = 40 mg/kg daily oral gavage, 40 mg/kg
[9] = 80 mg/kg daily oral gavage, 80 mg/kg
[10] = tumor, individual mice with s.c. testosterone pellet, 7 d

O.O.O=P([O-])([O-])CP(=O)([O-])[O-].[99Tc+4] [99mTc-MDP]
localization to site of bone repair (fractured tibia) [1]: readily localized

CNC(=O)c1ccc(N2C(=S)N(c3ccc(C#N)c(C(F)(F)F)c3)C(=O)C2(C)C)cc1F [MDV3100]
tumor-associated 89Zr-5A10 (LNCaP-AR xenografts [2]; 40 and 80 mg/kg dose vs vehicle): significantly decreased | effect on localization of 89Zr-5A10 to tumor (LNCaP-AR xenografts [2]; daily oral gavage 7 d, 10, 40 or 80 mg/kg): inhibits | tumor-associated 89Zr-5A10 by PET (LNCaP-AR xenografts [3]; 80 mg/kg daily oral gavage vs vehicle): statistical changes | AR signaling and fPSA synthesis (fPSA and tPSA [4]; each dose (10, 40, 80 mg/kg)): inhibited | f/t PSA Ratio (fPSA and tPSA [4]; [7]): 0.73 and 0.56 and 0.60 and 0.69 | fPSA (fPSA and tPSA [4]; [7]): 19.12 ng/mL and 48.98 ng/mL and 3.96 ng/mL and 474.40 ng/mL | fPSA/tProtein (fPSA and tPSA [4]; [7]): 3.29 and 7.07 and 0.88 and 51.57 | f/t PSA Ratio (fPSA and tPSA [4]; [8]): 0.89 and 0.85 and 0.80 | fPSA (fPSA and tPSA [4]; [8]): 71.24 ng/mL and 43.25 ng/mL and 98.26 ng/mL | fPSA/tProtein (fPSA and tPSA [4]; [8]): 11.61 and 6.14 and 15.13 | f/t PSA Ratio (fPSA and tPSA [4]; [9]): 0.57 and 0.69 and 0.59 | fPSA (fPSA and tPSA [4]; [9]): 5.97 ng/mL and 77.83 ng/mL and 57.31 ng/mL | fPSA/tProtein (fPSA and tPSA [4]; [9]): 1.18 and 10.34 and 9.99

[18F-].[Na+] [18FNaF]
localization to site of bone repair (fractured tibia) [1]: readily localized

C[C@]12CC[C@H]3[C@@H](CCC4=CC(=O)CC[C@@]43C)[C@@H]1CC[C@@H]2O [testosterone]
intratumoral PSA levels (fPSA and tPSA [5]; s.c. testosterone pellet vs no manipulation): increased | f/t PSA Ratio (fPSA and tPSA [5]; [10]): 0.81 and 0.60 and 0.70 and 0.20 | fPSA (fPSA and tPSA [5]; [10]): 147.77 ng/mL and 424.31 ng/mL and 384.89 ng/mL and 566.42 ng/mL | fPSA/tProtein (fPSA and tPSA [5]; [10]): 22.69 and 51.56 and 65.44 and 66.60 | fPSA (fPSA and tPSA [6]): 31.0 ng/mL and 26.8 ng/mL and 29.8 ng/mL and 32.9 ng/mL | fPSA/tProtein (fPSA and tPSA [6]): 3.60 and 2.84 and 3.44 and 4.19 | tumor-associated 89Zr-5A10 by PET (LNCaP-AR xenografts [3]; s.c. testosterone pellets): significant increase
